Measured values reported in PubChem BioAssay (NCI).
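Tested at 5 concentrations; 48 h exposure; 96-well plates; endpoints linearly interpolated, else capped at highest concentration. GI50 is the concentration that inhibits growth by half. TGI: concentration producing complete growth inhibition.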

How the values were obtained:
Test in all cases: NCI tumour cell line growth inhibition, 48 h
HOP-62 NSCLC = test system: HOP-62 NSCLC
786-0 renal = test system: 786-0 renal
COLO 205 colon = test system: COLO 205 colon
MDA-MB-435 = test system: MDA-MB-435
TK-10 renal = test system: TK-10 renal
SF-295 CNS = test system: SF-295 CNS
SR leukemia = test system: SR leukemia
BT-549 breast = test system: BT-549 breast
PC-3 prostate = test system: PC-3 prostate
LOX IMVI melanoma = test system: LOX IMVI melanoma

Structure (SMILES)	GI50 (HOP-62 NSCLC) [µM]	TGI (HOP-62 NSCLC) [µM]	GI50 (786-0 renal) [µM]	TGI (786-0 renal) [µM]	GI50 (COLO 205 colon) [µM]	TGI (COLO 205 colon) [µM]	GI50 (MDA-MB-435) [µM]	TGI (MDA-MB-435) [µM]	GI50 (TK-10 renal) [µM]	TGI (TK-10 renal) [µM]	GI50 (SF-295 CNS) [µM]	TGI (SF-295 CNS) [µM]	GI50 (SR leukemia) [µM]	TGI (SR leukemia) [µM]	GI50 (BT-549 breast) [µM]	TGI (BT-549 breast) [µM]	GI50 (PC-3 prostate) [µM]	TGI (PC-3 prostate) [µM]	GI50 (LOX IMVI melanoma) [µM]	TGI (LOX IMVI melanoma) [µM]
C=C1C(=O)O[C@H]2[C@H]1CC/C(COC(=O)NCCc1c[nH]c3ccccc13)=C\CC[C@@]1(C)O[C@@H]21	5.25	19.8	1.17	2.81	1.36	3.09	1.62	3.9	1.92	3.55	9.68	21.4	1.07	7.05	1.27	2.82	3.05	13	0.788	2.23
COc1cc(C(=O)O)ccc1NC(=O)[C@@H]1N[C@@H](CC(C)(C)C)[C@](C#N)(c2ccc(Cl)cc2F)[C@H]1c1cccc(Cl)c1F	6.04	17.4	3.45	18.4	3.1	12	2.82	13.1	5.28	21.2	2.78	8.64			2.76	7.11	2.91	> 42.6	0.148	6.84
N#C/C(=C\c1ccc(Cl)cc1)n1nnc2cc(F)c(F)cc21	2.29	6.32	1.69	3.28	2.18	4.83	1.76	4.42			2.26	5.53	1.33	> 100	1.74	3.43	1.61	3.53	1.57	2.99
O=C1CN2CCC1C/C2=C\c1ccnc2c(Cl)cccc12 (stereo not drawn)	> 100	> 100	> 100	> 100	> 100	> 100	75.6	> 100	> 100	> 100	46.5	> 100	36.5	> 100	> 100	> 100	89	> 100	52.2	> 100
O=C(c1cccs1)c1c(C(F)(F)F)n([O-])c2cc(C(F)(F)F)ccc2[n+]1=O	0.174	0.337	0.171	0.319	0.174	0.362	0.315	0.877	0.678	1.85	0.322	0.889	0.0176	0.0833	0.188	0.367	0.136	0.281	0.0714	0.17
CCC[C@H](Nc1nc(-c2ccc(NC(=O)NCC)c(OC)c2)ncc1C)c1cccnc1	0.0638	39.7	0.0453	12.6	0.0282	0.0736	0.0219	0.0533	14.3	55.1	0.0253	0.0678	0.03	1.71	0.0413	26	0.047	> 55.6	0.0415	13.8
Cc1c(N(C(=O)c2cc(-c3cc(Cl)ccc3C(=O)N3Cc4ccccc4C[C@H]3CN3CCOCC3)n(C)c2C)c2ccc(O)cc2)cc(C#N)n1C	25.8	> 100	12.5	36.8	17.1	35.2	16.5	40.7	12.8	78	13.2	> 100	6.25	> 100	6.41	26.5	11.3	> 100	14.6	> 100
COc1cc(-c2ccc(-[n+]3nc(-c4ccc([N+](=O)[O-])cc4)nn3-c3ccc([N+](=O)[O-])cc3)c(OC)c2)ccc1-[n+]1nc(-c2ccc([N+](=O)[O-])cc2)nn1-c1ccc([N+](=O)[O-])cc1	1.84	4.54	3.45	23.2			2.51	6.62	4.61	17.5	3.07	16.1	30.4	> 100	6.21	70.8	12.8	36.5	0.347	10.1
COc1cc(/C=C2\C[C@H]3[C@@H]4CC=C5C[C@@H](OC(C)=O)CC[C@]5(C)[C@H]4CC[C@]3(C)[C@H]2OC(C)=O)ccc1OCCCn1ccnc1	11.3	19.5	6.06	13.4	11.6	38.5	10.2	22.1	3.73	13.3	4.77	12.4	8.2	36.3	5.68	13.6	11.5	29.1	7.46	14.9
CCC[CH2][Sn]([CH2]CCC)([O]C(=O)c1cccc(F)c1F)[O][Sn]([CH2]CCC)([CH2]CCC)[O]C(=O)c1cccc(F)c1F	1.6	3	0.154	0.344	0.288	0.969	0.13	1.09	0.206	0.562	0.919	2.19	0.0771		0.121	0.369	0.59	1.86	0.111	0.25
O=C1OC2(c3ccccc31)c1cc(I)c(O)c(I)c1Oc1c2cc(I)c(O)c1I		> 100		> 100		> 100		> 100		> 100		> 100		> 100		> 100		> 100		> 100
COc1ccc(C(=O)c2ccc(OC)cc2OC)cc1	2.6	> 100	5.32	> 100	1.65	3.51	0.361	2.34	5.01	> 100	2.33	9.4	0.891	> 100	4.06	> 100	4.38	> 100	4.47	> 100
